According to patent publication US20250282830A1, “ANTI-VIRAL PEPTIDE COMPOSITIONS AND METHODS TO IMPROVE BIOLOGICAL ACTIVITY THEREOF” (priority 2021, published 2025):

Experiments:
[1] = Time-lapse fluorescence microscopy imaging of peptide-induced vesicle rupture; details: small and large tethered vesicles
Method: Highly parallel measurements of peptide-induced liposome rupture were conducted by time-lapsed epifluorescence microscopy imaging. An Eclipse Ti-E inverted microscope (Nikon) with a high-pressure mercury lamp, a CFI Plan Apochromat TIRF×60 oil-immersion objective (NA 1.49; Nikon) and an Andor iXon3 897 EMCCD camera (Andor Technology), was utilized for measurements. The samples were illuminated with a mercury lamp (Intenslight C-HGFIE) using a TRITC filter set. Briefly, glass coverslips were assembled into a microfluidic flow cell, and coated with a thin layer of PLL-g-PEG(-biotin), followed by tethering of 0.025 μg ml^−1 liposomes via biotin-neutravidin coupling. Peptide was then added at a volumetric rate of 100 μl min^−1, and micrographs were recorded every 5-30 s depending on the particular experiment. The initial time was defined by when the peptide solution entered the channel inlet. Data processing and analysis were conducted using ImageJ (National Institutes of Health) and Python(x,y) software packages. The diameter of individual liposomes was estimated based on fluorescence intensity values. […]
Using time-lapse fluorescence microscopy imaging, we further investigated the interactions of different versions of Peptides 2 and 4 with tethered vesicles at the single-vesicle level and saw different degrees of vesicle rupture in terms of total extent and speed (FIG. 14).

DENV-1 = test: Plaque reduction neutralization assay, DENV-1; format: cell-based, Dengue virus serotype 1; details: Vero cells; virus pre-incubated with peptide 1 h at 37° C.; read-out: DENV-1 PRNT50
Method: (§1) Vero cells were seeded at 1×10^5 cells per well and incubated overnight. Twofold serial dilutions of peptide were incubated with 200-300 p.f.u. of virus for 1 h at 37° C. Cells were infected with the virus-peptide mixture for 1 h at 37° C. The inoculum was removed and 0.8% (wt/vol) methylcellulose in medium supplemented with 1% FBS was added. After 3-5 days incubation, plates were fixed and analysed for plaques by immunostaining (DENV). For immunostaining, the cells were fixed, followed by incubation with 4G2, a mouse anti-DENV E protein monoclonal antibody (1:2,000 dilution), for 16-20 h. After addition of a secondary antibody, goat anti-mouse IgG (H+L)-HRP conjugate (1:2,000 dilution), the TrueBlue peroxidase substrate (KPL) was added and the optical density was measured at a wavelength of 450 nm. For crystal violet staining, cells were fixed with fixing solution (5% glutaric dialdehyde in Dulbecco's PBS) followed by staining with 0.1% crystal violet in fixing solution. The IC50 value was calculated by comparing the relative number of plaques in peptide-treated samples to virus-only samples using a four-parameter logistic curve fit.

DENV-2 = test: Plaque reduction neutralization assay, DENV-2; format: cell-based, Dengue virus serotype 2; details: Vero cells; virus pre-incubated with peptide 1 h at 37° C.; read-out: DENV-2 PRNT50
Method: as §1

DENV-3 = test: Plaque reduction neutralization assay, DENV-3; format: cell-based, Dengue virus serotype 3; details: Vero cells; virus pre-incubated with peptide 1 h at 37° C.; read-out: DENV-3 PRNT50
Method: as §1

DENV-4 = test: Plaque reduction neutralization assay, DENV-4; format: cell-based, Dengue virus serotype 4; details: Vero cells; virus pre-incubated with peptide 1 h at 37° C.; read-out: DENV-4 PRNT50
Method: as §1

[2] = Pharmacokinetic characterization; format: in vivo, BALB/c mice; details: mice
Method: Male BALB/c mice (InVivos) aged 8-9 weeks were used during the pharmacokinetic characterization experiments. In brief, mice were anaesthetized by isoflurane. AH-D peptide solution (25 mg kg^−1) was then administered by the intravenous (i.v.) route (tail vein). Blood samples were taken by cardiac puncture under isoflurane anaesthesia at regular time points after injection (eight time points per compound). The administered dose was maintained at 5 ml kg^−1. Selected organs were collected after euthanasia and were stored at −80° C. until bioanalysis. Blood samples were mixed with deionized water while tissue samples were homogenized in deionized water before extraction. The samples were then treated with phosphoric acid (5 μl), followed by acetonitrile (25 μl) that contained 15 ng ml^−1 imipramine internal standard, 5% ammonium hydroxide (25 μl), deionized water (100 μl) and 5% Tween-20 (20 μl), before vortexing. The processed samples were then added to pre-activated Strata-X Solid Phase Extraction cartridges (30 mg per 1 ml; Phenomenex), and washed with 500 μl of deionized water, followed by elution in 75/25 acetonitrile/methanol with 1% formic acid. […] The blood and tissue samples were then analysed using a validated bio-analytical, ultra-performance liquid chromatography tandem mass spectrometry method. […]

[3] = Blood-to-brain influx assessment (BBB transport); format: in vivo, ICR-CD-1 mice; details: mice
Method: Female, Institute for Cancer Research, Caesarean Derived-1 (ICR-CD-1) mice (7 to 10 weeks old; Envigo) were used to assess the in vivo blood-brain barrier (BBB) transport properties of AH-D peptide. The BBB permeability of AH-D was evaluated according to multiple time regression (MTR) analysis. In brief, mice were anesthetized by injecting 40% urethane intraperitoneally. Approximately 200 μl of AH-D peptide solution (10 mg kg^−1) was injected into the jugular internalis vein, then blood samples were collected from the carotid artery at selected time points after injection (minimum five time points per compound). Immediately after blood collection, the mice were euthanized by decapitation. The collected blood samples were centrifuged at 10,000 g for 15 min at 21° C. and the brains were isolated. The brain and the serum of each mouse were then analysed using a validated bio-analytical, ultrahigh-performance liquid chromatography tandem mass spectrometry method. Modelling of the data was performed according to the linear Gjedde-Patlak equation, giving the influx rate constant Kin (unidirectional clearance) of AH-D peptide. The molar concentration in the brain was also calculated by converting the mass of peptide per mass of brain tissue into the mass of peptide per volume of brain tissue by assuming the brain density to be 1.04 g ml^−1. […]

Compound: SGSWLRDVWDWICTVLTDFKTWLQSKL [Peptide N2O]
- Dependence of vesicle rupture on vesicle size (membrane-curvature sensing), single-vesicle analysis [1]: ruptured vesicles independently of vesicle size
- IC50 (DENV-1): 146 nM
- IC50 (DENV-2): 384 nM
- IC50 (DENV-3): 662 nM
- IC50 (DENV-4): 266 nM

Compound: CC[C@@H](C)[C@@H](NC(=O)[C@@H](Cc1c[nH]c2ccccc12)NC(=O)[C@@H](CC(=O)O)NC(=O)[C@@H](Cc1c[nH]c2ccccc12)NC(=O)[C@H](NC(=O)[C@@H](CC(=O)O)NC(=O)[C@@H](CCCNC(=N)N)NC(=O)[C@@H](CC(C)C)NC(=O)[C@@H](Cc1c[nH]c2ccccc12)NC(=O)[C@@H](CO)NC(=O)CNC(=O)[C@H](N)CO)C(C)C)C(=O)N[C@H](CS)C(=O)N[C@@H](C(=O)N[C@@H](C(=O)N[C@H](CC(C)C)C(=O)N[C@@H](C(=O)N[C@H](CC(=O)O)C(=O)N[C@H](Cc1ccccc1)C(=O)N[C@H](CCCCN)C(=O)N[C@@H](C(=O)N[C@H](Cc1c[nH]c2ccccc12)C(=O)N[C@H](CC(C)C)C(=O)N[C@H](CCC(N)=O)C(=O)N[C@H](CO)C(=O)N[C@H](CCCCN)C(=O)N[C@H](CC(C)C)C(=O)O)[C@H](C)O)[C@H](C)O)C(C)C)[C@H](C)O [AH-D peptide]
- Bioavailability [2]: high bioavailability
- Circulation half-time ([2]; 25 mg kg−1 i.v.): relatively long circulation half-time
- Blood brain barrier (BBB) crossing [3]: able to cross the blood brain barrier
- Blood brain barrier (BBB) crossing ([3]; listed as D-amino acid version of peptide 2): BBB-crossing activity to achieve therapeutic concentrations in the brain

Compound: SGSWLRDVWDWICTVLTDFKTWLQSKL [Peptide N2N]
- Dependence of vesicle rupture on vesicle size (membrane-curvature sensing), single-vesicle analysis [1]: have membrane-curvature sensing mechanisms
- IC50 (DENV-1): 115 nM
- IC50 (DENV-2): 290 nM
- IC50 (DENV-3): 436 nM
- IC50 (DENV-4): 171 nM

Compound: SGSWLRDIWEWVCSILTDFKNWLSAKL [Peptide N4N]
- IC50 (DENV-1): 281 nM
- IC50 (DENV-2): 1350 nM
- IC50 (DENV-3): 3880 nM
- IC50 (DENV-4): 984 nM

Compound: GSTWLRDIWDWVCTVLSDFRVWLKSKL [Peptide O110]
- IC50 (DENV-1): 258 nM
- IC50 (DENV-2): 1160 nM
- IC50 (DENV-3): 490 nM
- IC50 (DENV-4): 810 nM

Compound: GDDWLHDIWDWVCIVLSDFKTWLSAKI [Peptide N8N]
- IC50 (DENV-1): 97.4 nM
- IC50 (DENV-2): 253 nM
- IC50 (DENV-3): 271 nM
- IC50 (DENV-4): 194 nM

Compound: SDDWLRIIWDWVCSVVSDFKAWLSAKI [Peptide N5N]
- IC50 (DENV-1): 236 nM
- IC50 (DENV-2): 545 nM
- IC50 (DENV-3): 1380 nM
- IC50 (DENV-4): 338 nM

Compound: SDDWLRIIWDWVCSVVSDFKAWLSAKI [Peptide N5O]
- IC50 (DENV-1): 235 nM
- IC50 (DENV-2): 838 nM
- IC50 (DENV-3): 1590 nM
- IC50 (DENV-4): 649 nM

Compound: GSTWLRDIWDWVCTVLSDFRVWLKSKL [Peptide N11N]
- IC50 (DENV-1): 591 nM
- IC50 (DENV-2): 924 nM
- IC50 (DENV-3): 289 nM
- IC50 (DENV-4): 306 nM

Compound: SGSWLRDIWDWICEVLSDFKTWLKAKL [Peptide O1O]
- IC50 (DENV-1): 132 nM
- IC50 (DENV-2): 242 nM
- IC50 (DENV-3): 175 nM
- IC50 (DENV-4): 286 nM
